# Test results: patent US10952992B2, “Methods of treating intraocular pressure with activators of Tie-2” (Aerpio Pharmaceuticals, Inc., priority 2015, dated 2021)
# Where “and” joins values, the source holds several entries; their conditions need not be identical. Identical values can stand only once.
# Test system: intraocular pressure in normotensive New Zealand White rabbits
# Experiment: Example 3 intraocular pressure after repeated topical and subcutaneous administration (pneumotonometer)
# Assay type: in vivo
# Design: IOP, individual animal / IOP, group Average: unit not given here
# Method: To measure the tolerability and effect of Compound 1 (sodium salt) on intraocular pressure following repeated topical and subcutaneous administration, normotensive New Zealand White rabbits were treated with Compound 1 (sodium salt). Animals were acclimated 1 to 2 times per day to the intraocular pressure (IOP) measurement procedures prior to initiation of the study to determine baseline IOP levels. IOP acclimation was performed in the two weeks prior to study start for a total of 5 days. Animals with unacceptable IOP values were excluded from the study. Prior to taking all IOP measurements, 1 to 2 drops of a 0.5% proparacaine solution were applied to the eye as a topical anesthetic. OP measurements were performed with a pneumotonometer. Test and control formulations were administered to the animals once or twice daily topically into both eyes or subcutaneously starting on Day 1 according to TABLE 20 and TABLE 21 below. PM dosing, where applicable, was performed ˜8 hours after AM dosing. IOP measurements were performed twice (AM and PM) at baseline (prior to the start of dosing), twice (AM and PM) on Days 1 and 7, and once daily (AM) on Days 2-6 and Day 8. Prior to taking all IOP measurements, 1 to 2 drops of a 0.5% proparacaine solution were applied to the eye as a topical anesthetic. IOP measurements were performed with a pneumotonometer. AM IOP measurements were performed 2 hours after AM dosing; the only exceptions were Day 8 AM measurements, which were performed 24 hours after the final dose. PM IOP measurements were performed ˜5 hours (baseline and Day 1) or ˜4 hours (Day 7) after AM IOP measurements, prior to PM dosing, with at least 15 minutes elapsing between anesthetic application for PM IOP measurements and PM dosing. The final round of slit-lamp examinations was performed on Day 8.
# [1] = Group 2: 0.45 mg/eye topical sodium salt BID, Day 1, AM, OD
# [2] = Group 2: 0.45 mg/eye topical sodium salt BID, Day 1, AM, OS
# [3] = Group 2: 0.45 mg/eye topical sodium salt BID, Day 1, PM, OD
# [4] = Group 2: 0.45 mg/eye topical sodium salt BID, Day 1, PM, OS
# [5] = Group 2: 0.45 mg/eye topical sodium salt BID, Day 2, AM, OD
# [6] = Group 2: 0.45 mg/eye topical sodium salt BID, Day 2, AM, OS
# [7] = Group 2: 0.45 mg/eye topical sodium salt BID, Day 3, AM, OD
# [8] = Group 2: 0.45 mg/eye topical sodium salt BID, Day 3, AM, OS
# [9] = Group 2: 0.45 mg/eye topical sodium salt BID, Day 4, AM, OD
# [10] = Group 2: 0.45 mg/eye topical sodium salt BID, Day 4, AM, OS
# [11] = Group 2: 0.45 mg/eye topical sodium salt BID, Day 5, AM, OD
# [12] = Group 2: 0.45 mg/eye topical sodium salt BID, Day 5, AM, OS
# [13] = Group 3: 1.2 mg/eye topical sodium salt BID, Day 1, AM, OD
# [14] = Group 3: 1.2 mg/eye topical sodium salt BID, Day 1, AM, OS
# [15] = Group 3: 1.2 mg/eye topical sodium salt BID, Day 1, PM, OD
# [16] = Group 3: 1.2 mg/eye topical sodium salt BID, Day 1, PM, OS
# [17] = Group 3: 1.2 mg/eye topical sodium salt BID, Day 2, AM, OD
# [18] = Group 3: 1.2 mg/eye topical sodium salt BID, Day 2, AM, OS
# [19] = Group 3: 1.2 mg/eye topical sodium salt BID, Day 3, AM, OD
# [20] = Group 3: 1.2 mg/eye topical sodium salt BID, Day 3, AM, OS
# [21] = Group 3: 1.2 mg/eye topical sodium salt BID, Day 4, AM, OD
# [22] = Group 3: 1.2 mg/eye topical sodium salt BID, Day 4, AM, OS
# [23] = Group 3: 1.2 mg/eye topical sodium salt BID, Day 5, AM, OD
# [24] = Group 3: 1.2 mg/eye topical sodium salt BID, Day 5, AM, OS
compound,measurement,setting,value
COC(=O)N[C@@H](Cc1ccccc1)C(=O)N[C@@H](Cc1ccc(NS(=O)(=O)O)cc1)c1csc(-c2cccs2)n1 [Compound 1],"IOP, group Average",[1],22.1
same,"IOP, individual animal",[1],20.3 and 23.7 and 24.0 and 20.7 and 21.7
same,"IOP, group Average",[2],23.3
same,"IOP, individual animal",[2],20.7 and 23.3 (2×) and 25.2 and 23.8
same,"IOP, group Average",[3],25.5
same,"IOP, individual animal",[3],24.8 (2×) and 29.5 and 22.0 and 26.2
same,"IOP, group Average",[4],26.1
same,"IOP, individual animal",[4],24.8 and 24.2 and 28.8 and 25.3 and 27.2
same,"IOP, group Average",[5],21.9
same,"IOP, individual animal",[5],22.0 and 22.7 and 25.0 and 18.3 and 21.7
same,"IOP, group Average",[6],22.2
same,"IOP, individual animal",[6],21.8 and 22.3 and 24.3 and 20.8 and 21.5
same,"IOP, group Average",[7],24.0
same,"IOP, individual animal",[7],25.0 and 24.2 and 26.0 and 20.8 and 23.8
same,"IOP, group Average",[8],24.5
same,"IOP, individual animal",[8],25.3 and 23.5 and 26.0 and 23.0 and 24.5
same,"IOP, group Average",[9],23.9
same,"IOP, individual animal",[9],23.8 and 22.0 and 26.7 and 21.3 and 25.7
same,"IOP, group Average",[10],24.3
same,"IOP, individual animal",[10],23.0 and 22.7 and 26.3 and 23.5 and 26.2
same,"IOP, group Average",[11],25.2
same,"IOP, individual animal",[11],28.8 and 22.8 and 28.0 and 20.7 and 25.7
same,"IOP, group Average",[12],26.5
same,"IOP, individual animal",[12],28.8 and 25.0 and 28.0 and 24.2 and 26.3
same,"IOP, group Average","Group 2: 0.45 mg/eye topical sodium salt BID, Day 6, AM, OD",25.5
same,"IOP, group Average","Group 2: 0.45 mg/eye topical sodium salt BID, Day 6, AM, OS",25.4
same,"IOP, group Average","Group 2: 0.45 mg/eye topical sodium salt BID, Day 7, AM, OD",23.7
same,"IOP, group Average","Group 2: 0.45 mg/eye topical sodium salt BID, Day 7, AM, OS",24.5
same,"IOP, group Average","Group 2: 0.45 mg/eye topical sodium salt BID, Day 7, PM, OD",25.1
same,"IOP, group Average","Group 2: 0.45 mg/eye topical sodium salt BID, Day 7, PM, OS",25.6
same,"IOP, group Average","Group 2: 0.45 mg/eye topical sodium salt BID, Day 8, AM (24 hours after final dose), OD",24.9
same,"IOP, group Average","Group 2: 0.45 mg/eye topical sodium salt BID, Day 8, AM (24 hours after final dose), OS",25.1
same,"IOP, group Average",[13],22.0
same,"IOP, individual animal",[13],23.2 and 20.7 and 24.0
same,"IOP, group Average",[14],23.2
same,"IOP, individual animal",[14],23.8 and 23.0 and 24.7
same,"IOP, group Average",[15],24.1
same,"IOP, individual animal",[15],23.8 and 22.7 and 24.7
same,"IOP, group Average",[16],24.9
same,"IOP, individual animal",[16],24.5 and 23.7 and 26.8
same,"IOP, group Average",[17],20.8
same,"IOP, individual animal",[17],17.5 and 18.5 and 24.3
same,"IOP, group Average",[18],21.2
same,"IOP, individual animal",[18],19.3 and 20.2 and 24.0
same,"IOP, group Average",[19],20.7
same,"IOP, individual animal",[19],19.2 and 20.0 and 23.0
same,"IOP, group Average",[20],21.2
same,"IOP, individual animal",[20],20.0 and 20.8 and 22.7
same,"IOP, group Average",[21],22.8
same,"IOP, individual animal",[21],23.2 and 19.8 and 23.8 and 24.8
same,"IOP, group Average",[22],23.2
same,"IOP, individual animal",[22],23.3 and 21.7 and 24.2 and 24.5
same,"IOP, group Average",[23],21.5
same,"IOP, individual animal",[23],21.5 and 18.8 and 22.3 and 21.2
same,"IOP, group Average",[24],22.0
same,"IOP, individual animal",[24],22.3 and 19.8 and 23.5 and 20.7
same,"IOP, group Average","Group 3: 1.2 mg/eye topical sodium salt BID, Day 6, AM, OD",24.2
same,"IOP, group Average","Group 3: 1.2 mg/eye topical sodium salt BID, Day 6, AM, OS",24.7
same,"IOP, group Average","Group 3: 1.2 mg/eye topical sodium salt BID, Day 7, AM, OD",21.3
same,"IOP, group Average","Group 3: 1.2 mg/eye topical sodium salt BID, Day 7, AM, OS",22.0
same,"IOP, group Average","Group 3: 1.2 mg/eye topical sodium salt BID, Day 7, PM, OD",23.7
same,"IOP, group Average","Group 3: 1.2 mg/eye topical sodium salt BID, Day 7, PM, OS",24.2
same,"IOP, group Average","Group 3: 1.2 mg/eye topical sodium salt BID, Day 8, AM (24 hours after final dose), OD",23.4
same,"IOP, group Average","Group 3: 1.2 mg/eye topical sodium salt BID, Day 8, AM (24 hours after final dose), OS",23.9
same,"IOP, group Average","Group 4: 1.2 mg/eye topical sodium salt QD, Day 1, AM, OD",21.2
same,"IOP, group Average","Group 4: 1.2 mg/eye topical sodium salt QD, Day 1, AM, OS",21.4
same,"IOP, group Average","Group 4: 1.2 mg/eye topical sodium salt QD, Day 1, PM, OD",23.1
same,"IOP, group Average","Group 4: 1.2 mg/eye topical sodium salt QD, Day 1, PM, OS",23.2
same,"IOP, group Average","Group 4: 1.2 mg/eye topical sodium salt QD, Day 2, AM, OD",20.0
same,"IOP, group Average","Group 4: 1.2 mg/eye topical sodium salt QD, Day 2, AM, OS",20.1
same,"IOP, group Average","Group 4: 1.2 mg/eye topical sodium salt QD, Day 3, AM, OD",20.8
same,"IOP, group Average","Group 4: 1.2 mg/eye topical sodium salt QD, Day 3, AM, OS",20.9
same,"IOP, group Average","Group 4: 1.2 mg/eye topical sodium salt QD, Day 4, AM, OD",21.6
same,"IOP, group Average","Group 4: 1.2 mg/eye topical sodium salt QD, Day 4, AM, OS",22.6
same,"IOP, group Average","Group 4: 1.2 mg/eye topical sodium salt QD, Day 5, AM, OD",21.0
same,"IOP, group Average","Group 4: 1.2 mg/eye topical sodium salt QD, Day 5, AM, OS",21.2
same,"IOP, group Average","Group 4: 1.2 mg/eye topical sodium salt QD, Day 6, AM, OD",22.5
same,"IOP, group Average","Group 4: 1.2 mg/eye topical sodium salt QD, Day 6, AM, OS",23.2
same,"IOP, group Average","Group 4: 1.2 mg/eye topical sodium salt QD, Day 7, AM, OD",22.6
same,"IOP, group Average","Group 4: 1.2 mg/eye topical sodium salt QD, Day 7, AM, OS",23.0
same,"IOP, group Average","Group 4: 1.2 mg/eye topical sodium salt QD, Day 7, PM, OD",24.6
same,"IOP, group Average","Group 4: 1.2 mg/eye topical sodium salt QD, Day 7, PM, OS",24.7
same,"IOP, group Average","Group 4: 1.2 mg/eye topical sodium salt QD, Day 8, AM (24 hours after final dose), OD",22.7
same,"IOP, group Average","Group 4: 1.2 mg/eye topical sodium salt QD, Day 8, AM (24 hours after final dose), OS",22.8
same,"IOP, group Average","Group 5: 10 mg/kg subcutaneous sodium salt BID, Day 1, AM, OD",22.3
same,"IOP, group Average","Group 5: 10 mg/kg subcutaneous sodium salt BID, Day 1, AM, OS",23.6
same,"IOP, group Average","Group 5: 10 mg/kg subcutaneous sodium salt BID, Day 1, PM, OD",23.3
same,"IOP, group Average","Group 5: 10 mg/kg subcutaneous sodium salt BID, Day 1, PM, OS",23.6
same,"IOP, group Average","Group 5: 10 mg/kg subcutaneous sodium salt BID, Day 2, AM, OD",21.5
same,"IOP, group Average","Group 5: 10 mg/kg subcutaneous sodium salt BID, Day 2, AM, OS",21.7
same,"IOP, group Average","Group 5: 10 mg/kg subcutaneous sodium salt BID, Day 3, AM, OD",20.7
same,"IOP, group Average","Group 5: 10 mg/kg subcutaneous sodium salt BID, Day 3, AM, OS",21.3
same,"IOP, group Average","Group 5: 10 mg/kg subcutaneous sodium salt BID, Day 4, AM, OD",21.9
same,"IOP, group Average","Group 5: 10 mg/kg subcutaneous sodium salt BID, Day 4, AM, OS",22.2
same,"IOP, group Average","Group 5: 10 mg/kg subcutaneous sodium salt BID, Day 5, AM, OD",22.4
same,"IOP, group Average","Group 5: 10 mg/kg subcutaneous sodium salt BID, Day 5, AM, OS",23.4
same,"IOP, group Average","Group 5: 10 mg/kg subcutaneous sodium salt BID, Day 6, AM, OD",24.5
same,"IOP, group Average","Group 5: 10 mg/kg subcutaneous sodium salt BID, Day 6, AM, OS",25.0
same,"IOP, group Average","Group 5: 10 mg/kg subcutaneous sodium salt BID, Day 7, AM, OD",23.9
same,"IOP, group Average","Group 5: 10 mg/kg subcutaneous sodium salt BID, Day 7, AM, OS",23.9
same,"IOP, group Average","Group 5: 10 mg/kg subcutaneous sodium salt BID, Day 7, PM, OD",24.1
same,"IOP, group Average","Group 5: 10 mg/kg subcutaneous sodium salt BID, Day 7, PM, OS",24.3
same,"IOP, group Average","Group 5: 10 mg/kg subcutaneous sodium salt BID, Day 8, AM (24 hours after final dose), OD",24.5
same,"IOP, group Average","Group 5: 10 mg/kg subcutaneous sodium salt BID, Day 8, AM (24 hours after final dose), OS",24.0
